Assay results from ChEMBL document CHEMBL2074556, “Possible involvement of P-glycoprotein in the biliary excretion of grepafloxacin” (Clin Exp Pharmacol Physiol, 2002).

Key:
[1] = molecular target: T1, ATP-dependent translocase ABCB1 (Mus musculus, UniProt P21447); experiment: TP_TRANSPORTER: increase in Doxorubicin intracellular accumulation (Doxorubicin: 5 uM, Norfloxacin: 500 uM) in P388/ADR cells; format: functional, cell-based
[2] = molecular target: T1, ATP-dependent translocase ABCB1; experiment: TP_TRANSPORTER: increase in Doxorubicin intracellular accumulation (Doxorubicin: 5 uM, SPFX: 500 uM) in P388/ADR cells; format: functional, cell-based
[3] = molecular target: T1, ATP-dependent translocase ABCB1; experiment: TP_TRANSPORTER: increase in Doxorubicin intracellular accumulation (Doxorubicin: 5 uM, Tosufloxacin: 500 uM) in P388/ADR cells; format: functional, cell-based
[4] = molecular target: T1, ATP-dependent translocase ABCB1; experiment: TP_TRANSPORTER: increase in Doxorubicin intracellular accumulation (Doxorubicin: 5 uM, GPFX: 500 uM) in P388/ADR cells; format: functional, cell-based
[5] = molecular target: Multidrug resistance protein 1a (Rattus norvegicus) (UniProt Q6PSM0); experiment: TP_TRANSPORTER: […] in biliary excretion by Doxorubicin, Cyclosporin A and Erythromycin in vivo Wistar rat; format: functional, organism-based; details: Bile
Multidrug resistance protein 1a (Rattus norvegicus), sequence (Q6PSM0 as listed by the source): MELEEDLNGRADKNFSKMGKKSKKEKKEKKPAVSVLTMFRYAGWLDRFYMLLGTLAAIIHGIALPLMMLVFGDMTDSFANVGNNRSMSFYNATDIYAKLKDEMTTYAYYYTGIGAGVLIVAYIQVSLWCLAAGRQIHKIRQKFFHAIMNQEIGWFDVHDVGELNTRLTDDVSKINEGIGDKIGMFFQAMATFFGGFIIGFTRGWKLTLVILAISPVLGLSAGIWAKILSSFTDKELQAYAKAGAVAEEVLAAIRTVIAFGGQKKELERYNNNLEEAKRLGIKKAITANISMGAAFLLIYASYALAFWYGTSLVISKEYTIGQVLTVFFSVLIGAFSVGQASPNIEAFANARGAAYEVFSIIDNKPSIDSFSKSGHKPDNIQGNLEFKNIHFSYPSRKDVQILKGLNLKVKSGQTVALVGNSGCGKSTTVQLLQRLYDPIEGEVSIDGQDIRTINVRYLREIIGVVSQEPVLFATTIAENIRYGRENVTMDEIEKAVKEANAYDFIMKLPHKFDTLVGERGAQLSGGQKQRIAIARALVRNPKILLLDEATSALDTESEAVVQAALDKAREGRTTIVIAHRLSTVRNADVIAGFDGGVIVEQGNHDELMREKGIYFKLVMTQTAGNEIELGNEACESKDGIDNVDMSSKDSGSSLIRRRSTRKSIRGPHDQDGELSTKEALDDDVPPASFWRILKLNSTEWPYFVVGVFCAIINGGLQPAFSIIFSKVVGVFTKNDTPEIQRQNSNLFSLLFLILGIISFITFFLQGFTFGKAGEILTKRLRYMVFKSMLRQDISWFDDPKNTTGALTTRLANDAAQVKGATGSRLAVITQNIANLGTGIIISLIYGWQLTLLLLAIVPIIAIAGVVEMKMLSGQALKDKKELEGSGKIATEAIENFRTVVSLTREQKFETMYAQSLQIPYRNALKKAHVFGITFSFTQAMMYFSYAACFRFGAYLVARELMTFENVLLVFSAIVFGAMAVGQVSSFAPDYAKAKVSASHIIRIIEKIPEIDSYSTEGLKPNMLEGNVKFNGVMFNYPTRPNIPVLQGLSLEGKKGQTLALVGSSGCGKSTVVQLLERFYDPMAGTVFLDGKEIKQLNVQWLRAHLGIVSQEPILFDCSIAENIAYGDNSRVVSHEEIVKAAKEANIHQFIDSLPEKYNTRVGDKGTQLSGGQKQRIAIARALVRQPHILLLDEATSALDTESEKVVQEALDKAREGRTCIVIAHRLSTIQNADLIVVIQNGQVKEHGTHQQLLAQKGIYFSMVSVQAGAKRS

T1 sequence (P21447 whole entry): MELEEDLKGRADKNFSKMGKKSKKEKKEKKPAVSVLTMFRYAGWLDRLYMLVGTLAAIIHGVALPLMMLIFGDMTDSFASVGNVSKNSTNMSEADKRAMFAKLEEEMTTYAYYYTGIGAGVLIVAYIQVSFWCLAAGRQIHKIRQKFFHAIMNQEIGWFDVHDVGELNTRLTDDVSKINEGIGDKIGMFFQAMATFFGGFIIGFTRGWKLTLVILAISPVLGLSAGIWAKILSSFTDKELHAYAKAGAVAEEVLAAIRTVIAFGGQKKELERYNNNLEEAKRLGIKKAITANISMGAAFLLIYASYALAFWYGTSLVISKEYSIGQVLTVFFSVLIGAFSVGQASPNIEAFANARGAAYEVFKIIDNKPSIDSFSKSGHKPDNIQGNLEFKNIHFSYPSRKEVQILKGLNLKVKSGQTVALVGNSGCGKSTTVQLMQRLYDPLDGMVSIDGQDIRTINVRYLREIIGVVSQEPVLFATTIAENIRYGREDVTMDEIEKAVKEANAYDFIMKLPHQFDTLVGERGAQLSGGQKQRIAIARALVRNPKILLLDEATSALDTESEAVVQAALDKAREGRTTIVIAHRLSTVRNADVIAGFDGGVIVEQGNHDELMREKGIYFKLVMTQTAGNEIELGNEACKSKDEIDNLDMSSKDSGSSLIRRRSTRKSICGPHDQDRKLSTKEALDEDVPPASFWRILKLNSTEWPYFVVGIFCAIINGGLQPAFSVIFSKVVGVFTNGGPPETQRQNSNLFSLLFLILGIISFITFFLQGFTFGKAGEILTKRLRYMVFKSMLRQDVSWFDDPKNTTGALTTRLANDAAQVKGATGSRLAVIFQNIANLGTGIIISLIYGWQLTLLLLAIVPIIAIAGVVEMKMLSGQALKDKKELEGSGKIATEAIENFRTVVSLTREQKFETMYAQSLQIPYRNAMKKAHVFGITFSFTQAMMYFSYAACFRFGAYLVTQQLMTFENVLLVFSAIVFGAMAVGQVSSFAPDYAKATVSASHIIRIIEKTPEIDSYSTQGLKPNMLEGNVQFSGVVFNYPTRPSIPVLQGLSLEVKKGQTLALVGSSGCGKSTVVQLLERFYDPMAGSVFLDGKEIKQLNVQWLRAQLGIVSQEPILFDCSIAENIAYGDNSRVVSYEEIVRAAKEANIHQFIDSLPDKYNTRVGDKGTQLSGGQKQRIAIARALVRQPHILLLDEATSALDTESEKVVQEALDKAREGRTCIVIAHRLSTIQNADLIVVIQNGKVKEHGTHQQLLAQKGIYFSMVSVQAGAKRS

CCn1cc(C(=O)O)c(=O)c2cc(F)c(N3CCNCC3)cc21 [NORFLOXACIN]
Activity [1]: inhibitor [(at a rough estimate) 290 % of control]

C[C@@H]1CN(c2c(F)c(N)c3c(=O)c(C(=O)O)cn(C4CC4)c3c2F)C[C@H](C)N1 [SPARFLOXACIN]
Activity [2]: inhibitor [(at a rough estimate) 140 % of control]

NC1CCN(c2nc3c(cc2F)c(=O)c(C(=O)O)cn3-c2ccc(F)cc2F)C1 (stereo not given) [TOSUFLOXACIN]
Activity [3]: inhibitor [(at a rough estimate) 200 % of control]

Cc1c(F)c(N2CCNC(C)C2)cc2c1c(=O)c(C(=O)O)cn2C1CC1 (stereo not given) [GREPAFLOXACIN]
Activity [4]: inhibitor [(at a rough estimate) 140 % of control] | Activity [5]: substrate [+]
